In paper PMC11768184, “Non-Steroidal Anti-Inflammatory Drugs Are Inhibitors of the Intestinal Proton-Coupled Amino Acid Transporter (PAT1): Ibuprofen and Diclofenac Are Non-Translocated Inhibitors” (Pharmaceutics, 2025):
Each block holds one compound with its values, some of them ahead of it.

Legend:
Assay type in all cases: cell-based
[1] = molecular target: T1, proton-coupled amino acid transporter (hPAT1) (Homo sapiens, UniProt Q7Z2H8); assay: concentration-dependent inhibition of [3H]-proline uptake in Caco-2 cells, pH […]
T1 construct: gene SLC36A1
T1 sequence (Q7Z2H8 whole entry): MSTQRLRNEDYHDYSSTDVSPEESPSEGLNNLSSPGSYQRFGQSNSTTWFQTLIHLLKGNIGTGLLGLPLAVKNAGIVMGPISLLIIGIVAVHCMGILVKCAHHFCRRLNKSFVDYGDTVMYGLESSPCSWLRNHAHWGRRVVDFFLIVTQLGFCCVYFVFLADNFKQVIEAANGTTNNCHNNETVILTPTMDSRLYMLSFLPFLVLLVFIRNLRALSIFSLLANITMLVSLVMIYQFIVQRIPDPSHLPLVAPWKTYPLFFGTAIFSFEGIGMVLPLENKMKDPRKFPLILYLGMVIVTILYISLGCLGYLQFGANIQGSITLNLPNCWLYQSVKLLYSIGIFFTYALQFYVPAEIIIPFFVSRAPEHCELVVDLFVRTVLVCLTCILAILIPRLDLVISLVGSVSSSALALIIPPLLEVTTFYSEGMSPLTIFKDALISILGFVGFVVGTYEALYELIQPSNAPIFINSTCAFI

[2] = molecular target: T1, proton-coupled amino acid transporter (hPAT1); assay: TEVC in hPAT1-expressing Xenopus oocytes; [3H]-proline uptake inhibition in Caco-2 cells, pH […]
[3] = molecular target: T1, proton-coupled amino acid transporter (hPAT1); assay: TEVC in hPAT1-expressing Xenopus oocytes; [3H]-proline uptake inhibition and kinetics in Caco-2 cells, pH […]

Compound: CC(C(=O)O)c1ccc(-c2ccccc2)c(F)c1 (racemic) [flurbiprofen]
IC50 [1]: 280 µM

IC50 [2]: 272 µM
Compound: O=C(O)Cc1ccccc1Nc1c(Cl)cccc1Cl [diclofenac]

Compound: CC(C)Cc1ccc(C(C)C(=O)O)cc1 (racemic) [ibuprofen]
IC50 [3]: 954 µM
